# Patent US6465522B1, “Anthraquinone anticancer drugs” (priority 1998, dated 2002)
# Like-named read-outs stand apart in the source and are kept apart here.
# Experiments:
# Type in all cases: cell-based
# [1] = test system: A2780; assay: MTT growth inhibition, A2780 parental ovarian cancer cell line; conditions: MTT assay, 24 hour drug exposure, mean of triplicate, read-out: Growth Inhibition of Ovarian Cancer Cell Lines (IC50/nM) A2780
# Method: (§1) The cells used for the anticancer activity measurements were the parental ovarian cell line designated as A2780, the doxorubicin-resistant variant designated as 2780AD, and the cisplatin-resistant variant designated as 2780CP (also known as CP70). Drug sensitivity in these cell lines was measured by the standard MTT assay (Carmichael et al., 1987, Cancer Research, 47: 936) with a 24 hour drug exposure time. The values obtained are mean values of triplicate measurements.
# [2] = test system: 2780CP; assay: MTT growth inhibition, 2780CP cisplatin resistant ovarian cancer cell line
# Method: as §1
# [3] = test system: 2780AD; assay: MTT growth inhibition, 2780AD adriamycin (doxorubicin) resistant ovarian cancer cell line
# Method: as §1
# [4] = test system: CH1cisR; assay: Antitumour activity in drug resistant ovarian cancer cell line CH1cisR
# [5] = test system: SKOV-3; assay: Antitumour activity in drug resistant ovarian cancer cell line SKOV-3; conditions: SKOV-3 drug resistant ovarian cancer cell line
# [6] = 2780CP cisplatin resistant variant, MTT assay, 24 hour drug exposure, mean of triplicate, read-out: Growth Inhibition of Ovarian Cancer Cell Lines (IC50/nM) 2780CP
# [7] = 2780AD adriamycin resistant variant, MTT assay, 24 hour drug exposure, mean of triplicate, read-out: Growth Inhibition of Ovarian Cancer Cell Lines (IC50/nM) 2780AD
SMILES,IC50 [1] [nM],"IC50 [2, 6] [nM]","IC50 [3, 7] [nM]","IC50 ([2]; 2780CP, read-out: IC50 2780CP) [nM]",IC50 [4] [nM],"IC50 ([3]; 2780AD, read-out: IC50 2780AD) [nM]",IC50 [5] [nM],IC50 ([1]; Homo sapiens) [nM]
"N.N.[Cl][Pt][Cl] [Cisplatin, cisplatin]",340 ± 60,2620 ± 730,3020 ± 220,–,–,–,–,–
CN(C)CCNc1ccc(NCCN(CCCl)CCCl)c2c1C(=O)c1c(O)ccc(O)c1C2=O [Compound (2)],4 ± 0.6,11.8 ± 1.4,–,12,19,16,490,–
"COc1cccc2c1C(=O)c1c(O)c3c(c(O)c1C2=O)C[C@@](O)(C(=O)CO)C[C@@H]3O[C@H]1C[C@H](N)[C@H](O)[C@H](C)O1 [Adriamycin, adriamycin]",–,13.3 ± 0.9,4860 ± 510,–,–,–,–,5 ± 1.1
